{"source": "patent US9012655B2", "about": "“Antimicrobial/adjuvant compounds and methods” (Denouamed, Inc., priority 2011, dated 2015)", "test_in_all_cases": "MIC panel of challenge pathogens (CLSI)", "type_in_all_cases": "cell-based", "key": {"[1]": {"test_system": "Staphylococcus aureus AUR131 007035", "conditions": "Staphylococcus aureus", "how_it_was_run": "(§1)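 Broth microdilution per CLSI guidelines. Final inoculum 2-8×10^5 CFU/ml, compounds serially two-fold diluted from 128 mg/L top concentration. Incubated in the dark at 30-37° C for 24-48 h, aerobic or anaerobic as appropriate. MIC read visually as 100% inhibition endpoint; MIC50 and MIC80 also reported.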"}, "[2]": {"test_system": "Staphylococcus aureus AUR60 7005", "conditions": "Staphylococcus aureus", "how_it_was_run": "as §1"}, "[3]": {"test_system": "Staphylococcus epidermidis NRS122", "conditions": "Staphylococcus epidermidis", "how_it_was_run": "as §1"}, "[4]": {"test_system": "Bacillus cereus NCTC6349", "conditions": "Bacillus cereus", "how_it_was_run": "as §1"}, "[5]": {"test_system": "Staphylococcus epidermidis NRS7", "conditions": "Staphylococcus epidermidis", "how_it_was_run": "as §1"}, "[6]": {"test_system": "Staphylococcus aureus EUP SAU040", "conditions": "Staphylococcus aureus", "how_it_was_run": "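CLSI broth microdilution; inoculum 2-8×10^5 CFU/ml; 2-fold series, top 128 mg/L; 30-37° C, 24-48 h, dark; visual read, 100% inhibition endpoint.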"}, "[7]": {"test_system": "Staphylococcus aureus NRS2 (ATCC700698)", "conditions": "Staphylococcus aureus", "how_it_was_run": "as §1"}, "[8]": {"test_system": "Staphylococcus aureus AUR58 7005", "conditions": "Staphylococcus aureus", "how_it_was_run": "as §1"}, "[9]": {"test_system": "Staphylococcus aureus EUP MRSA002", "conditions": "Staphylococcus aureus", "how_it_was_run": "as §1"}, "[10]": {"test_system": "Enterococcus faecalis ATCC29212", "conditions": "Enterococcus faecalis", "how_it_was_run": "as §1"}, "[11]": {"test_system": "Staphylococcus aureus NRS382", "conditions": "Staphylococcus aureus", "how_it_was_run": "as §1"}, "[12]": {"test_system": "Enterococcus faecium ATCC700221", "conditions": "Enterococcus faecium", "how_it_was_run": "as §1"}, "[13]": {"test_system": "Staphylococcus aureus EUP MRSA004", "conditions": "Staphylococcus aureus", "how_it_was_run": "as §1"}, "[14]": {"test_system": "Staphylococcus aureus NRS384", "conditions": "Staphylococcus aureus", "how_it_was_run": "as §1"}, "[15]": {"test_system": "Staphylococcus aureus NRS383", "conditions": "Staphylococcus aureus", "how_it_was_run": "as §1"}, "[16]": {"test_system": "Staphylococcus aureus ATCC43300", "conditions": "Staphylococcus aureus", "how_it_was_run": "as §1"}, "[17]": {"test_system": "Enterococcus faecalis ATCC51299", "conditions": "Enterococcus faecalis", "how_it_was_run": "as §1"}, "[18]": {"test_system": "Staphylococcus aureus AUR59 7005", "conditions": "Staphylococcus aureus", "how_it_was_run": "as §1"}, "[19]": {"test_system": "Staphylococcus aureus NRS1 (ATCC700699)", "conditions": "Staphylococcus aureus", "how_it_was_run": "as §1"}}, "data": [{"smiles": "CN[C@H](CC(C)C)C(=O)N[C@H]1C(=O)N[C@@H](CC(N)=O)C(=O)N[C@H]2C(=O)N[C@H]3C(=O)N[C@H](C(=O)N[C@H](C(=O)O)c4cc(O)cc(O)c4-c4cc3ccc4O)[C@H](O)c3ccc(c(Cl)c3)Oc3cc2cc(c3O[C@@H]2O[C@H](CO)[C@@H](O)[C@H](O)[C@H]2O[C@H]2C[C@](C)(N)[C@H](O)[C@H](C)O2)Oc2ccc(cc2Cl)[C@H]1O", "note": "[Vancomycin, reference compound]", "values": [{"measurement": "MIC", "setting": "[1]; AUR131007035, read-out: 100% inhibition", "result": 0.5, "unit": "µg/mL"}, {"measurement": "MIC50", "setting": "[1]; AUR131007035, read-out: MIC50 (50%)", "result": 0.5, "unit": "µg/mL"}, {"measurement": "MIC80", "setting": "[1]; AUR131007035, read-out: MIC80 (80%)", "result": 0.5, "unit": "µg/mL"}, {"measurement": "MIC", "setting": "[2]; AUR607005, read-out: 100% inhibition", "result": 1, "unit": "µg/mL"}, {"measurement": "MIC50", "setting": "[2]; AUR607005, read-out: MIC50 (50%)", "result": 0.5, "unit": "µg/mL"}, {"measurement": "MIC80", "setting": "[2]; AUR607005, read-out: MIC80 (80%)", "result": 1, "unit": "µg/mL"}, {"measurement": "MIC", "setting": "[3]; NRS122, read-out: 100% inhibition", "result": 2, "unit": "µg/mL"}, {"measurement": "MIC50", "setting": "[3]; NRS122, read-out: MIC50 (50%)", "result": 1, "unit": "µg/mL"}, {"measurement": "MIC80", "setting": "[3]; NRS122, read-out: MIC80 (80%)", "result": 1, "unit": "µg/mL"}, {"measurement": "MIC", "setting": "[4]; NCTC6349, read-out: 100% inhibition", "result": 2, "unit": "µg/mL"}, {"measurement": "MIC50", "setting": "[4]; NCTC6349, read-out: MIC50 (50%)", "result": 1, "unit": "µg/mL"}, {"measurement": "MIC80", "setting": "[4]; NCTC6349, read-out: MIC80 (80%)", "result": 2, "unit": "µg/mL"}, {"measurement": "MIC", "setting": "[5]; NRS7, read-out: 100% inhibition", "result": 4, "unit": "µg/mL"}, {"measurement": "MIC50", "setting": "[5]; NRS7, read-out: MIC50 (50%)", "result": 2, "unit": "µg/mL"}, {"measurement": "MIC80", "setting": "[5]; NRS7, read-out: MIC80 (80%)", "result": 4, "unit": "µg/mL"}, {"measurement": "MIC", "setting": "[6]; EUPSAU040, read-out: 100% inhibition", "result": 1, "unit": "µg/mL"}, {"measurement": "MIC50", "setting": "[6]; EUPSAU040, read-out: MIC50 (50%)", "result": 1, "unit": "µg/mL"}, {"measurement": "MIC80", "setting": "[6]; EUPSAU040, read-out: MIC80 (80%)", "result": 1, "unit": "µg/mL"}, {"measurement": "MIC", "setting": "[7]; read-out: 100% inhibition", "result": 1, "unit": "µg/mL"}, {"measurement": "MIC50", "setting": "[7]; read-out: MIC50 (50%)", "result": 0.5, "unit": "µg/mL"}, {"measurement": "MIC80", "setting": "[7]; read-out: MIC80 (80%)", "result": 1, "unit": "µg/mL"}, {"measurement": "MIC", "setting": "[8]; AUR587005, read-out: 100% inhibition", "result": 1, "unit": "µg/mL"}, {"measurement": "MIC50", "setting": "[8]; AUR587005, read-out: MIC50 (50%)", "result": 1, "unit": "µg/mL"}, {"measurement": "MIC80", "setting": "[8]; AUR587005, read-out: MIC80 (80%)", "result": 1, "unit": "µg/mL"}, {"measurement": "MIC", "setting": "[9]; EUPMRSA002, read-out: 100% inhibition", "result": 0.5, "unit": "µg/mL"}, {"measurement": "MIC50", "setting": "[9]; EUPMRSA002, read-out: MIC50 (50%)", "result": 0.5, "unit": "µg/mL"}, {"measurement": "MIC80", "setting": "[9]; EUPMRSA002, read-out: MIC80 (80%)", "result": 0.5, "unit": "µg/mL"}, {"measurement": "MIC", "setting": "[10]; ATCC29212, read-out: 100% inhibition", "result": 4, "unit": "µg/mL"}, {"measurement": "MIC50", "setting": "[10]; ATCC29212, read-out: MIC50 (50%)", "result": 4, "unit": "µg/mL"}, {"measurement": "MIC80", "setting": "[10]; ATCC29212, read-out: MIC80 (80%)", "result": 4, "unit": "µg/mL"}, {"measurement": "MIC", "setting": "[11]; NRS382, read-out: 100% inhibition", "result": 1, "unit": "µg/mL"}, {"measurement": "MIC50", "setting": "[11]; NRS382, read-out: MIC50 (50%)", "result": 1, "unit": "µg/mL"}, {"measurement": "MIC80", "setting": "[11]; NRS382, read-out: MIC80 (80%)", "result": 1, "unit": "µg/mL"}, {"measurement": "MIC", "setting": "[12]; ATCC700221, read-out: 100% inhibition", "result": "> 16", "unit": "µg/mL"}, {"measurement": "MIC50", "setting": "[12]; ATCC700221, read-out: MIC50 (50%)", "result": "> 16", "unit": "µg/mL"}, {"measurement": "MIC80", "setting": "[12]; ATCC700221, read-out: MIC80 (80%)", "result": "> 16", "unit": "µg/mL"}, {"measurement": "MIC", "setting": "[13]; EUPMRSA004, read-out: 100% inhibition", "result": 0.5, "unit": "µg/mL"}, {"measurement": "MIC50", "setting": "[13]; EUPMRSA004, read-out: MIC50 (50%)", "result": 0.5, "unit": "µg/mL"}, {"measurement": "MIC80", "setting": "[13]; EUPMRSA004, read-out: MIC80 (80%)", "result": 0.5, "unit": "µg/mL"}, {"measurement": "MIC", "setting": "[14]; NRS384, read-out: 100% inhibition", "result": 1, "unit": "µg/mL"}, {"measurement": "MIC50", "setting": "[14]; NRS384, read-out: MIC50 (50%)", "result": 1, "unit": "µg/mL"}, {"measurement": "MIC80", "setting": "[14]; NRS384, read-out: MIC80 (80%)", "result": 1, "unit": "µg/mL"}, {"measurement": "MIC", "setting": "[15]; NRS383, read-out: 100% inhibition", "result": 0.5, "unit": "µg/mL"}, {"measurement": "MIC50", "setting": "[15]; NRS383, read-out: MIC50 (50%)", "result": 0.5, "unit": "µg/mL"}, {"measurement": "MIC80", "setting": "[15]; NRS383, read-out: MIC80 (80%)", "result": 0.5, "unit": "µg/mL"}, {"measurement": "MIC", "setting": "[16]; ATCC43300, read-out: 100% inhibition", "result": 0.5, "unit": "µg/mL"}, {"measurement": "MIC50", "setting": "[16]; ATCC43300, read-out: MIC50 (50%)", "result": 0.5, "unit": "µg/mL"}, {"measurement": "MIC80", "setting": "[16]; ATCC43300, read-out: MIC80 (80%)", "result": 0.5, "unit": "µg/mL"}, {"measurement": "MIC", "setting": "[17]; ATCC51299, read-out: 100% inhibition", "result": "> 16", "unit": "µg/mL"}, {"measurement": "MIC50", "setting": "[17]; ATCC51299, read-out: MIC50 (50%)", "result": "> 16", "unit": "µg/mL"}, {"measurement": "MIC80", "setting": "[17]; ATCC51299, read-out: MIC80 (80%)", "result": "> 16", "unit": "µg/mL"}, {"measurement": "MIC", "setting": "[18]; AUR597005, read-out: 100% inhibition", "result": 1, "unit": "µg/mL"}, {"measurement": "MIC50", "setting": "[18]; AUR597005, read-out: MIC50 (50%)", "result": 0.5, "unit": "µg/mL"}, {"measurement": "MIC80", "setting": "[18]; AUR597005, read-out: MIC80 (80%)", "result": 0.5, "unit": "µg/mL"}, {"measurement": "MIC", "setting": "[19]; read-out: 100% inhibition", "result": 4, "unit": "µg/mL"}, {"measurement": "MIC50", "setting": "[19]; read-out: MIC50 (50%)", "result": 2, "unit": "µg/mL"}, {"measurement": "MIC80", "setting": "[19]; read-out: MIC80 (80%)", "result": 4, "unit": "µg/mL"}]}]}
